This assay addresses T1, Human Mer (Homo sapiens, UniProt Q12866).
T1 construct: Human Mer (residues R557-E882 with H628Q and R794A, 0.7 nM); purchased Eurofins Pharma Discovery Services UK Limited (KinaseProfiler service)
T1 sequence (Q12866 557-882 limits assumed): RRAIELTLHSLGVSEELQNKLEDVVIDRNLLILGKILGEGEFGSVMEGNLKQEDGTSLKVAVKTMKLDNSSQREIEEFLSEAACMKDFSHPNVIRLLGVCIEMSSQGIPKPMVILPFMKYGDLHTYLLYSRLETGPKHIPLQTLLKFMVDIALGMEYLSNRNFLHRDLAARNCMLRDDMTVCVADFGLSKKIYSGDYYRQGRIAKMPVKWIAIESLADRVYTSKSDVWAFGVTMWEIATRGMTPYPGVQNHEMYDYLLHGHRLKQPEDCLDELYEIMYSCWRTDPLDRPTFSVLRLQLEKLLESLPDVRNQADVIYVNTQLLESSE
Description: Human Mer kinase assay (33P radiometric / HTRF KinEase). The conditions noted are these: protocols of Examples C-1 and/or C-2. It is filed as biochemical. The essentials:
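Two formats yield IC50 values. HTRF KinEase used MER residues 528-999 with ATP at Km (40 μM), 1 μM biotin-peptide, 60 min RT, […], 10 concentrations. 33P filter assay used 0.7 nM Mer R557-E882 (H628Q/R794A), 10 μM ATP, 250 μM peptide, 40 min RT, top 1 μM.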
For orientation: In TR-FRET formats the signal depends on donor and acceptor labels being close together.

Where a name gives a salt, the structure may show the parent alone. Some results are limits rather than exact numbers.

One may read the IC50 as the concentration needed to halve the response being measured. Read a low IC50 as greater potency in that assay. Consider `C=C(C)c1c(C)n(C)c(C)c(C(=O)Nc2ccc(Oc3ccnc4cc(OC)c(OC)nc34)c(F)c2)c1=O` [Compound 52, N-[4-[(6,7-Dimethoxy-1,5-naphthyridin-4-yl)oxy]-3-fluorophenyl]-1,2,6-trimethyl-4-oxo-5-prop-1-en-2-ylpyridine-3-carboxamide], for which the IC50 was ≤ 100 nM.

With `COc1cc2nccc(Oc3ccc(NC(=O)c4c(C)n(C)c(C)c(C5=CCOCC5)c4=O)cc3F)c2nc1OC` [Compound 53, 5-(3,6-Dihydro-2H-pyran-4-yl)-N-[4-[(6,7-dimethoxy-1,5-naphthyridin-4-yl)oxy]-3-fluorophenyl]-1,2,6-trimethyl-4-oxopyridine-3-carboxamide], the IC50 was ≤ 100 nM.

For `COCCOc1cc2nccc(Oc3ccc(NC(=O)c4c(C)n(C)c(C)c(/C=C/C5CCCC5)c4=O)cc3F)c2nc1OC` [Compound 54, 5-[(E)-2-Cyclopentylethenyl]-N-[3-fluoro-4-[[6-methoxy-7-(2-methoxyethoxy)-1,5-naphthyridin-4-yl]oxy]phenyl]-1,2,6-trimethyl-4-oxopyridine-3-carboxamide], the half-maximal inhibitory concentration (IC50) was ≤ 100 nM.

`C=C(C)c1c(C)n(C)c(C)c(C(=O)Nc2ccc(Oc3ccnc4cc(OC)c(OC)nc34)cc2)c1=O` [Compound 55, N-[4-[(6,7-Dimethoxy-1,5-naphthyridin-4-yl)oxy]phenyl]-1,2,6-trimethyl-4-oxo-5-prop-1-en-2-ylpyridine-3-carboxamide]: the concentration for half-maximal inhibition (IC50) is ≤ 100 nM.

`COCCOc1cc2nccc(Oc3ccc(NC(=O)c4c(C)n(C)c(C)c(C5=CCCCC5)c4=O)cc3F)c2nc1OC` [Compound 58, 5-(Cyclohexen-1-yl)-N-[3-fluoro-4-[[6-methoxy-7-(2-methoxyethoxy)-1,5-naphthyridin-4-yl]oxy]phenyl]-1,2,6-trimethyl-4-oxopyridine-3-carboxamide]: the IC50 is ≤ 100 nM.

Turning to `COCCOc1cnc2c(Oc3ccc(NC(=O)c4c(C)n(C)c(C)c(C5=CCCC5)c4=O)cc3F)ccnc2c1` [Compound 65, 5-(Cyclopenten-1-yl)-N-[3-fluoro-4-[[7-(2-methoxyethoxy)-1,5-naphthyridin-4-yl]oxy]phenyl]-1,2,6-trimethyl-4-oxopyridine-3-carboxamide], the half-inhibitory concentration (IC50) is ≤ 100 nM.

Regarding `COCCOc1cnc2c(Oc3ccc(NC(=O)c4c(C)n(C)c(C)c(C5=CCCCC5)c4=O)cc3F)ccnc2c1` [Compound 66, 5-(Cyclohexen-1-yl)-N-[3-fluoro-4-[[7-(2-methoxyethoxy)-1,5-naphthyridin-4-yl]oxy]phenyl]-1,2,6-trimethyl-4-oxopyridine-3-carboxamide], the 50% inhibitory concentration (IC50) is ≤ 100 nM.

As for `COc1cc2nccc(Oc3ccc(NC(=O)c4c5n(c(C)c(C6=CCOCC6)c4=O)CCOC5)cc3)c2nc1OC` [Compound 73, 7-(3,6-Dihydro-2H-pyran-4-yl)-N-[4-[(6,7-dimethoxy-1,5-naphthyridin-4-yl)oxy]phenyl]-6-methyl-8-oxo-3,4-dihydro-1H-pyrido[2,1-c][1,4]oxazine-9-carboxamide], the IC50 was ≤ 100 nM.

For `COc1nc2c(Oc3ccc(NC(=O)c4c(C)n(C)c(C)c(C5=CCCC5)c4=O)cc3F)ccnc2cc1OCCC1CCC1` [Compound 74, N-[4-[[7-(2-Cyclobutylethoxy)-6-methoxy-1,5-naphthyridin-4-yl]oxy]-3-fluorophenyl]-5-(cyclopenten-1-yl)-1,2,6-trimethyl-4-oxopyridine-3-carboxamide], the IC50 was ≤ 100 nM.

Turning to `COc1cc2nccc(Oc3ccc(NC(=O)c4cnc(C)c(C5=CCCC5)c4O)cc3F)c2nc1OC` [Compound G1-2, 5-(Cyclopenten-1-yl)-N-[4-[(6,7-dimethoxy-1,5-naphthyridin-4-yl)oxy]-3-fluorophenyl]-4-hydroxy-6-methylpyridine-3-carboxamide hydrochloride], the half-maximal inhibitory concentration (IC50) is ≤ 100 nM.

With `COc1cc2nccc(Oc3ccc(NC(=O)c4cnc(C)c(C5=CCCCC5)c4O)cc3F)c2nc1OC` [Compound G1-3, 5-(Cyclohexen-1-yl)-N-[4-[(6,7-dimethoxy-1,5-naphthyridin-4-yl)oxy]-3-fluorophenyl]-4-hydroxy-6-methylpyridine-3-carboxamide], the IC50 was ≤ 100 nM.

Take `COc1cc2nccc(Oc3ccc(NC(=O)c4c5n(cc(C6=CCCCC6)c4=O)CCOC5)cc3F)c2nc1OC` [Compound G1-4, 7-(Cyclohexen-1-yl)-N-[4-[(6,7-dimethoxy-1,5-naphthyridin-4-yl)oxy]-3-fluorophenyl]-8-oxo-3,4-dihydro-1H-pyrido[2,1-c][1,4]oxazine-9-carboxamide]: the IC50 is ≤ 100 nM.

The values are drawn from patent publication US20240158393A1, “PYRIDONE COMPOUNDS AND METHODS OF USE” (Exelixis, Inc., priority 2021, published 2024).
